From ChEMBL document CHEMBL1145642, “Farnesyl pyrophosphate synthase enantiospecificity with a chiral risedronate analog, [6,7-dihydro-5H-cyclopenta[c]pyridin-7-yl(hydroxy)methylene]bis(phosphonic acid) (NE-10501): Synthetic, structural, and modeling studies” (Bioorg Med Chem Lett, 2008)

Target: T1, Farnesyl pyrophosphate synthase (Homo sapiens, UniProt P14324)
T1 sequence (P14324 whole entry): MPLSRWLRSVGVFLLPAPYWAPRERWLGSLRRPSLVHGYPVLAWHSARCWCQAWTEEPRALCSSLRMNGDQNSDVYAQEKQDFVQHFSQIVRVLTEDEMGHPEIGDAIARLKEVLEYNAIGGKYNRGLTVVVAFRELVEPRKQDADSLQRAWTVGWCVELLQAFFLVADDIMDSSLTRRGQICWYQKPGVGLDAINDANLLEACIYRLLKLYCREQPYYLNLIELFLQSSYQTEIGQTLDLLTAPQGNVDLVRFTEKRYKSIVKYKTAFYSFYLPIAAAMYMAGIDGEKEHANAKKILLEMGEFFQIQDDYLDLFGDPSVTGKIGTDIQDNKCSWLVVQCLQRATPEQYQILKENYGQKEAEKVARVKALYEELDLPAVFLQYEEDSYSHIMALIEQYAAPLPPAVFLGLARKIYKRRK

O=P(O)(O)C(O)(C1CCc2ccncc21)P(=O)(O)O (stereo unspecified) was tested, and the IC50 was 630 nM.
